Measurements as given in patent US20200237700A1, “METHODS OF REDUCING OR PREVENTING OXIDATION OF SMALL DENSE LDL OR MEMBRANE POLYUNSATURATED FATTY ACIDS” (Amarin Pharmaceuticals Ireland Limited, priority 2015, published 2020).

How the values were obtained:
[1] = test system: sdLDL from plasma of healthy volunteers; assay: Time-dependent sdLDL oxidation, MDA formation over 4 hours (Example 13); type: biochemical, human; conditions: each at 10 μM; 4 hours; 10 μM CuSO4
Procedure: sdLDL was isolated from the plasma of healthy volunteers by iodixanol density gradient centrifugation and adjusted to a final apolipoprotein concentration of 2 mg/mL. Sample aliquots (100 μg apolipoprotein) were incubated with EPA, DHA, or EPA+DHA (each at 10 μM) for 30 minutes at 37° C. and then treated with 10 μM CuSO4 to initiate lipid oxidation. sdLDL oxidation was measured spectrophotometrically as a function of malondialdehyde (MDA) formation at various intervals over 4 hours. Vitamin E was also tested as a positive control. Experiments were conducted in triplicate and reported as mean±SD.

[2] = test system: unfractionated LDL isolated from human plasma; assay: Copper-induced oxidation of unfractionated LDL, TBARS (Example 6); type: biochemical; conditions: 10.0 μM; unfractionated LDL
Procedure: All test compounds were further diluted in ethanol or aqueous buffer as needed. Venous blood was collected from healthy volunteers into vacutainer tubes containing sodium EDTA. […] Plasma and lipoprotein fractions were maintained at 4° C. and protected from excessive exposure to light. Prior to oxidation experiments, EDTA was removed from the lipoprotein fraction using PD-10 desalting columns (GE Healthcare, Piscataway N.J.). After equilibration of the column with phosphate buffered saline (PBS), 2.5 mL of the lipoprotein fraction was loaded on the column and the flow-through discarded. The lipoprotein was then eluted with 3 mL of PBS. The LDL fractions were further diluted with PBS to obtain a 100 μg/mL apoB100 concentration. […] Differences between groups were analyzed using the two-tailed, Student's t-test (for comparisons between only two groups) or ANOVA followed by Dunnett or Student-Newman-Keuls multiple comparisons post-hoc analysis (for comparisons between three or more groups).

Which results are given for CC/C=C\C/C=C\C/C=C\C/C=C\C/C=C\CCCC(=O)O [EPA, cis-5,8,11,14,17-eicosapentaenoic acid]?
MDA levels [1]: 0.8 ± 0.03 µM; reduction in sdLDL oxidation (MDA levels) [1]: 92%; reduced TBARS levels [2]: 17%
